Test results from patent US10786930B2, “Articles having antimicrobial properties and methods of manufacturing the same” (Medline Industries, Inc., priority 2010, dated 2020).

System: aerobic bacteria
Test: total bacterial count test on finished gloves (TSA plates)
Conditions: FIG. 5, total bacteria count on prepared articles as a function of CHG concentration in the coagulant
Method: In order to determine the effectiveness of the antimicrobial coagulant on a finished article, a total bacterial count test was completed on the article prepared using the above formulas. The following three concentrations were prepared: 0.8% Saline Solution (sodium Chloride), 4% TSA & 6.5% SDA solution, which were subsequently sterilized at 121° C. for 15 minutes. Three gloves made with each formula were cut into two pieces each and were soaked into 60 ml Saline solution and shaken for 10 minutes. After that, 1 ml of the solution and 1 ml of Agar solution (TSA and SDA) were pipetted out into a Petri dish. The Petri dish plates were incubated for 2 days at 30-35° C. for TSA & 4 days at 20-25° C. for SDA. The colonies on each plate was counted and total fungus/aerobic bacteria count per glove was calculated as: Total Aerobic Bacteria Count Per Glove=(Count of TSA plate*60)/3 Total Fungus Count Per Glove=(Count of SDA plate*60)/3 The results of total bacteria count on TSA for above four samples and control sample are listed below.

SMILES: N=C(NCCCCCCNC(=N)NC(=N)Nc1ccc(Cl)cc1)NC(=N)Nc1ccc(Cl)cc1.O=C(O)[C@H](O)[C@@H](O)[C@H](O)[C@H](O)CO.O=C(O)[C@H](O)[C@@H](O)[C@H](O)[C@H](O)CO [CHG, chlorhexidine gluconate]
- concentration of CHG up to which total bacteria count decreased (above it the count increased): approximately 0.02%
